Reference: PMC6009956, “Design, synthesis and biological activity of N^4-phenylsubstituted-7H-pyrrolo[2,3-d]pyrimidin-4-amines as dual inhibitors of aurora kinase A and epidermal growth factor receptor kinase” (Journal of Enzyme Inhibition and Medicinal Chemistry, 2017)
Where two headings read alike, the source gives them in different places.

Experiments:
EGFR = EGFR (Homo sapiens, UniProt P00533); assay: ADP-Glo kinase assay, EGFR; format: biochemical; set-up: purchased BPS Bioscience (assay run externally by the vendor)
aurora A kinase (AURKA) = biological target: T1, aurora A kinase (AURKA) (Homo sapiens, UniProt O14965); assay: ADP-Glo kinase assay, Aurora A; format: biochemical
T1 construct: purchased BPS Bioscience (assay run externally by the vendor)
T1 sequence (O14965 1-403): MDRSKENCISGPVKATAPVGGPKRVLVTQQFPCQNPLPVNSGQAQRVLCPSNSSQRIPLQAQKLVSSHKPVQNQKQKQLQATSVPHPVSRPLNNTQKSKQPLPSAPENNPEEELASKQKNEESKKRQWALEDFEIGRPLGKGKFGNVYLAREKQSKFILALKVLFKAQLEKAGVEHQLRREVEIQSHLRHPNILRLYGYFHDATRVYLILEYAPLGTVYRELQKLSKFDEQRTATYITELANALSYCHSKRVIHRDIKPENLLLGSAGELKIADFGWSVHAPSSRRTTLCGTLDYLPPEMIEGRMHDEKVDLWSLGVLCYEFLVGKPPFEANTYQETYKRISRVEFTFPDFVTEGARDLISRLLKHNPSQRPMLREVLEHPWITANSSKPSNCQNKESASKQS

[1] = 10 µM ATP, triplicate, read-out: EGFR IC50 ± SD
[2] = 10 µM ATP/0.2 mg/ml Poly-Glu-Tyr, read-out: EGFR IC50 (dose-response curve, supplement)
[3] = 10 µM ATP, triplicate, read-out: AURKA IC50 ± SD
[4] = 10 µM ATP/0.2 mg/ml Kemptide, read-out: Aurora A IC50 (dose-response curve, supplement)

Chain of EGFR (P00533 25-1210): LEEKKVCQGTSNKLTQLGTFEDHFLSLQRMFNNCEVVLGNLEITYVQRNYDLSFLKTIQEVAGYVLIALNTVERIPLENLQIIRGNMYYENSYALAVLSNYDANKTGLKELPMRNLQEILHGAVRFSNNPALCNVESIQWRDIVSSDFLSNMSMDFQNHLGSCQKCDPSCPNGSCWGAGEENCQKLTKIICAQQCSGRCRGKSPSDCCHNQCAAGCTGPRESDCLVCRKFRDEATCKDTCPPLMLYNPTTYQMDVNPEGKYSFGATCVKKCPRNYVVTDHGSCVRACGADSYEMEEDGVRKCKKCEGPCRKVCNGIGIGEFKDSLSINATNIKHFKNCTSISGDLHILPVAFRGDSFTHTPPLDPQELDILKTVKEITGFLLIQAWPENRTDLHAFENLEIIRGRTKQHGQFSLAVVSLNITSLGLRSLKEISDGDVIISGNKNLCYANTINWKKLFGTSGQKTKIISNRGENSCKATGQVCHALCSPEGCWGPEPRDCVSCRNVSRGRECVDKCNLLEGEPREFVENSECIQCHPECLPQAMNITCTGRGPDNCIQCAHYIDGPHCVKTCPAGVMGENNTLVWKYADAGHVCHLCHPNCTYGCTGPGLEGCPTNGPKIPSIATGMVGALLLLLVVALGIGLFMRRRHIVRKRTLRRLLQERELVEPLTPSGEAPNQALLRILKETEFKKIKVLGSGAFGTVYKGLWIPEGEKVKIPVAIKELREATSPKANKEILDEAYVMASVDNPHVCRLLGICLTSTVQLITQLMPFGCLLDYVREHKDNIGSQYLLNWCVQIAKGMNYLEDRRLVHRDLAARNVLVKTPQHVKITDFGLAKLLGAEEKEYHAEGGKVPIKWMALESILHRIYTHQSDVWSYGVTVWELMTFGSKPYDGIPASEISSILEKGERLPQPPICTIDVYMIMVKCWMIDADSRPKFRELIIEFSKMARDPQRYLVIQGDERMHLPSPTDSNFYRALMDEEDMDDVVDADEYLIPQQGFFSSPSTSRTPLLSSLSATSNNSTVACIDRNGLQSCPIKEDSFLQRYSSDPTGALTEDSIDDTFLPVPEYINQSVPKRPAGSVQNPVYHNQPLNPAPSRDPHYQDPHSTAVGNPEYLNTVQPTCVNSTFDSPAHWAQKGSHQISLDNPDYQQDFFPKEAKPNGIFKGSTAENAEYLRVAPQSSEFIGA

## Fc1cc(Nc2ncnc3[nH]ccc23)ccc1Cl [Compound 3, N^4-(3-fluoro-4-chlorophenyl)-7H-pyrrolo[2,3-d]pyrimidine-4-amine]
EGFR
  EGFR inhibition (in words): single-digit nanomolar EGFR inhibition
EGFR; [1]
  IC50: 5.98 ± 0.61 nM
EGFR; [2]
  IC50: 5.9 nM
EGFR; Log[nM] 0
  EGFR % Activity Set1: 57%
  EGFR % Activity Set2: 58%
  EGFR % Activity Set3: 56%
EGFR; Log[nM] 1.0
  EGFR % Activity Set1: 38%
  EGFR % Activity Set2: 37%
  EGFR % Activity Set3: 40%
EGFR; Log[nM] 1.5
  EGFR % Activity Set1: 13%
  EGFR % Activity Set2: 16%
  EGFR % Activity Set3: 16%
EGFR; Log[nM] 2.0
  EGFR % Activity Set1: 7%
  EGFR % Activity Set2: 7%
  EGFR % Activity Set3: 8%
EGFR; Log[nM] 2.5
  EGFR % Activity Set1: 2%
  EGFR % Activity Set2: 4%
  EGFR % Activity Set3: 3%
EGFR; Log[nM] 3.0
  EGFR % Activity Set1: 1%
  EGFR % Activity Set2: 1%
  EGFR % Activity Set3: 2%
EGFR; Log[nM] 3.5
  EGFR % Activity Set1: 0%
  EGFR % Activity Set2: 1%
  EGFR % Activity Set3: 0%
EGFR; Log[nM] 4.0
  EGFR % Activity Set1: 0%
  EGFR % Activity Set2: 0%
  EGFR % Activity Set3: 0%
EGFR; Log[nM] 4.5
  EGFR % Activity Set1: 0%
  EGFR % Activity Set2: 0%
  EGFR % Activity Set3: 0%
EGFR; Log[nM] 5.0
  EGFR % Activity Set1: 0%
  EGFR % Activity Set2: 0%
  EGFR % Activity Set3: 0%
Aurora A kinase (AURKA); [3]
  IC50: 3290 ± 150 nM
Aurora A kinase (AURKA); [4]
  IC50: 3300 nM
Aurora A kinase (AURKA); Log[nM] 0
  Aurora A % Activity Set1: 95%
  Aurora A % Activity Set2: 93%
  Aurora A % Activity Set3: 100%
Aurora A kinase (AURKA); Log[nM] 1.0
  Aurora A % Activity Set1: 99%
  Aurora A % Activity Set2: 96%
  Aurora A % Activity Set3: 101%
Aurora A kinase (AURKA); Log[nM] 1.5
  Aurora A % Activity Set1: 99%
  Aurora A % Activity Set2: 94%
  Aurora A % Activity Set3: 105%
Aurora A kinase (AURKA); Log[nM] 2.0
  Aurora A % Activity Set1: 105%
  Aurora A % Activity Set2: 104%
  Aurora A % Activity Set3: 107%
Aurora A kinase (AURKA); Log[nM] 2.5
  Aurora A % Activity Set1: 104%
  Aurora A % Activity Set2: 105%
  Aurora A % Activity Set3: 103%
Aurora A kinase (AURKA); Log[nM] 3.0
  Aurora A % Activity Set1: 78%
  Aurora A % Activity Set2: 75%
  Aurora A % Activity Set3: 77%
Aurora A kinase (AURKA); Log[nM] 3.5
  Aurora A % Activity Set1: 53%
  Aurora A % Activity Set2: 57%
  Aurora A % Activity Set3: 52%
Aurora A kinase (AURKA); Log[nM] 4.0
  Aurora A % Activity Set1: 17%
  Aurora A % Activity Set2: 16%
  Aurora A % Activity Set3: 16%
Aurora A kinase (AURKA); Log[nM] 4.5
  Aurora A % Activity Set1: 7%
  Aurora A % Activity Set2: 6%
  Aurora A % Activity Set3: 7%
Aurora A kinase (AURKA); Log[nM] 5.0
  Aurora A % Activity Set1: 6%
  Aurora A % Activity Set2: 5%
  Aurora A % Activity Set3: 5%

## Clc1ccc(Nc2ncnc3[nH]ccc23)cc1Br [Compound 7, N^4-(3-bromo, 4-chlorophenyl)-7H-pyrrolo[2,3-d]pyrimidine-4-amine]
EGFR
  EGFR inhibition (in words): single-digit nanomolar EGFR inhibition
EGFR; [1]
  IC50: 3.63 ± 0.43 nM
EGFR; [2]
  IC50: 3.6 nM
EGFR; Log[nM] 0
  EGFR % Activity Set1: 44%
  EGFR % Activity Set2: 50%
  EGFR % Activity Set3: 53%
EGFR; Log[nM] 1.0
  EGFR % Activity Set1: 18%
  EGFR % Activity Set2: 17%
  EGFR % Activity Set3: 20%
EGFR; Log[nM] 1.5
  EGFR % Activity Set1: 12%
  EGFR % Activity Set2: 13%
  EGFR % Activity Set3: 15%
EGFR; Log[nM] 2.0
  EGFR % Activity Set1: 4%
  EGFR % Activity Set2: 5%
  EGFR % Activity Set3: 4%
EGFR; Log[nM] 2.5
  EGFR % Activity Set1: 3%
  EGFR % Activity Set2: 3%
  EGFR % Activity Set3: 3%
EGFR; Log[nM] 3.0
  EGFR % Activity Set1: 1%
  EGFR % Activity Set2: 2%
  EGFR % Activity Set3: 2%
EGFR; Log[nM] 3.5
  EGFR % Activity Set1: 1%
  EGFR % Activity Set2: 1%
  EGFR % Activity Set3: 0%
EGFR; Log[nM] 4.0
  EGFR % Activity Set1: 0%
  EGFR % Activity Set2: 0%
  EGFR % Activity Set3: 0%
EGFR; Log[nM] 4.5
  EGFR % Activity Set1: 1%
  EGFR % Activity Set2: 1%
  EGFR % Activity Set3: 1%
EGFR; Log[nM] 5.0
  EGFR % Activity Set1: 0%
  EGFR % Activity Set2: 0%
  EGFR % Activity Set3: 0%
Aurora A kinase (AURKA); [3]
  IC50: 3230 ± 310 nM
Aurora A kinase (AURKA); [4]
  IC50: 3300 nM
Aurora A kinase (AURKA); Log[nM] 0
  Aurora A % Activity Set1: 95%
  Aurora A % Activity Set2: 102%
  Aurora A % Activity Set3: 95%
Aurora A kinase (AURKA); Log[nM] 1.0
  Aurora A % Activity Set1: 100%
  Aurora A % Activity Set2: 103%
  Aurora A % Activity Set3: 99%
Aurora A kinase (AURKA); Log[nM] 1.5
  Aurora A % Activity Set1: 100%
  Aurora A % Activity Set2: 103%
  Aurora A % Activity Set3: 103%
Aurora A kinase (AURKA); Log[nM] 2.0
  Aurora A % Activity Set1: 100%
  Aurora A % Activity Set2: 106%
  Aurora A % Activity Set3: 105%
Aurora A kinase (AURKA); Log[nM] 2.5
  Aurora A % Activity Set1: 95%
  Aurora A % Activity Set2: 97%
  Aurora A % Activity Set3: 95%
Aurora A kinase (AURKA); Log[nM] 3.0
  Aurora A % Activity Set1: 95%
  Aurora A % Activity Set2: 103%
  Aurora A % Activity Set3: 93%
Aurora A kinase (AURKA); Log[nM] 3.5
  Aurora A % Activity Set1: 40%
  Aurora A % Activity Set2: 40%
  Aurora A % Activity Set3: 37%
Aurora A kinase (AURKA); Log[nM] 4.0
  Aurora A % Activity Set1: 16%
  Aurora A % Activity Set2: 16%
  Aurora A % Activity Set3: 15%
Aurora A kinase (AURKA); Log[nM] 4.5
  Aurora A % Activity Set1: 31%
  Aurora A % Activity Set2: 30%
  Aurora A % Activity Set3: 30%
Aurora A kinase (AURKA); Log[nM] 5.0
  Aurora A % Activity Set1: 17%
  Aurora A % Activity Set2: 15%
  Aurora A % Activity Set3: 16%
